Source: patent US20040023972A1, “Use of substituted imidazo[1,2-a]-pyridin-, -pyrimidin-and-pyrazin-3-yl-amine derivatives in the preparation of medicaments for inhibiting NOS” (Gruenenthal GmbH, priority 2000, published 2004)

target: T1, NO synthase (Rattus norvegicus, UniProt P29476); experiment: HTS-NOS assay (NOS assay): conversion of radioactive arginine, cation-exchanger filter plate; assay type: biochemical; conditions: 10 μM
T1 construct: the supernatant was then removed by decantation and frozen in portions at −80° C; from tissue; host or cells: rat cerebellum, 20,000 g supernatant of homogenate
Outline: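 Percent inhibition was derived by comparing remaining radioactive arginine with compound-free controls. Arginine retained on phosphate cation-exchanger filters was counted after citrulline washout, following a 5-60 min room-temperature (25 °C) reaction of labelled arginine, NADPH-containing medium and rat cerebellar homogenate supernatant.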

Structure (SMILES) | HTS-NOS assay: % inhibition (10 μM) [%]
[C-]#[N+]CCCCCCN(C(C)=O)c1c(-c2cccnc2)nc2cc(C)cc(C)n12 [Example 232, {6-[acetyl-(5,7-dimethyl-2-pyridin-3-yl-imidazo[1,2-a]pyridin-3-yl)-amino]-hexyl}-methylidyne-ammonium] | 59

same assay, conditions: read-out: HTS-NOS assay: % inhibition (10 μM)

Structure (SMILES) | inhibition at 10 µM [%]
CC(=O)N(c1c(-c2ccc(C)o2)nc2ccccn12)C(C)(C)CC(C)(C)C [Example 200, N-[2-(5-methyl-furan-2-yl)-imidazo[1,2-a]pyridin-3-yl]-N-(1,1,3,3-tetramethylbutyl)-acetamide] | 58
CC(=O)N(c1c(-c2cc(C)c(C)o2)nc2ccccn12)C(C)(C)CC(C)(C)C [Example 202, N-[2-(4,5-dimethyl-furan-2-yl)-imidazo[1,2-a]pyridin-3-yl]-N-(1,1,3,3-tetramethyl-butyl)-acetamide] | 57
CC(=O)N(c1c(-c2ccco2)nc2cc(C)cc(C)n12)C1CCCCC1 [Example 203, N-cyclohexyl-N-(2-furan-2-yl-5,7-dimethyl-imidazo[1,2-a]pyridin-3-yl)-acetamide] | 60
CC(=O)N(c1c(-c2ccc(C(=O)O)s2)nc2cnccn12)C(C)(C)CC(C)(C)C [Example 205, 5-{3-[acetyl-(1,1,3,3-tetramethyl-butyl)-amino]-imidazo[1,2-a]pyrazin-2-yl}-thiophene-2-carboxylic acid] | 52
CCCCN(C(C)=O)c1c(-c2ccccc2C)nc2ncccn12 [Example 206, N-butyl-N-(2-o-tolyl-imidazo[1,2-a]pyrimidin-3-yl)acetamide] | 54
COc1ccc(-c2nc3cc(C)ccn3c2N(C(C)=O)c2c(C)cccc2C)cc1OC [Example 207, N-[2-(3,4-dimethoxy-phenyl)-7-methyl-imidazo[1,2-a]pyridin-3-yl]-N-(2,6-dimethyl-phenyl)-acetamide] | 51
CC(=O)N(c1c(-c2cc3ccccc3c3ccccc23)nc2cc(C)ccn12)C(C)(C)C [Example 208, N-tert-butyl-N-(7-methyl-2-phenanthren-9-yl-imidazo[1,2-a]pyridin-3-yl)-acetamide] | 63
COc1ccccc1-c1nc2c(C)cccn2c1N(C(C)=O)C(C)(C)CC(C)(C)C [Example 210, N-[2-(2-methoxy-phenyl)-8-methyl-imidazo[1,2-a]pyridin-3-yl]-N-(1,1,3,3-tetramethyl-butyl)-acetamide] | 53
CC(=O)N(c1c(C)cccc1C)c1c(-c2cccc(O)c2)nc2cc(C)cc(C)n12 [Example 211, N-(2,6-dimethyl-phenyl)-N-[2-(3-hydroxy-phenyl)-5,7-dimethyl-imidazo[1,2-a]-pyridin-3-yl]-acetamide] | 73
CC(=O)N(c1c(C)cccc1C)c1c(C(C)(C)C)nc2cc(C)ccn12 [Example 212, N-(2-tert-butyl-7-methyl-imidazo[1,2-a]pyridin-3-yl)-N-(2,6-dimethyl-phenyl)-acetamide] | 68
CC(=O)N(c1c(-c2ccc(C3OCCO3)o2)nc2cc(C)ccn12)C(C)(C)C [Example 214, N-tert-butyl-N-[2-(5-[1,3]dioxolan-2-yl-furan-2-yl)-7-methyl-imidazo[1,2-a]-pyridin-3-yl]-acetamide] | 56
CC(=O)N(c1c(-c2cc3ccccc3o2)nc2cc(C)ccn12)C(C)(C)CC(C)(C)C [Example 216, N-(2-benzofuran-2-yl-7-methyl-imidazo[1,2-a]pyridin-3-yl)-N-(1,1,3,3-tetramethyl-butyl)-acetamide] | 50
CC(=O)N(c1c(-c2cc3ccccc3o2)nc2cc(C)cc(C)n12)C(C)(C)CC(C)(C)C [Example 217, N-(2-benzofuran-2-yl-5,7-dimethyl-imidazo[1,2-a]pyridin-3-yl)-N-(1,1,3,3-tetramethyl-butyl)-acetamide] | 63
CC(=O)N(c1c(-c2ccc(C(=O)O)s2)nc2ccccn12)C(C)(C)C [Example 218, 5-[3-(acetyl-tert-butyl-amino)-imidazo[1,2-a]pyridin-2-yl]-thiophene-2-carboxylic acid] | 60
CC(=O)N(c1c(C2CCCCC2)nc2cc(C)cc(C)n12)C(C)(C)CC(C)(C)C [Example 219, N-(2-cyclohexyl-5,7-dimethyl-imidazo[1,2-a]pyridin-3-yl)-N-(1,1,3,3-tetramethyl-butyl)-acetamide] | 62
CC(=O)N(c1c(-c2ccc(C)o2)nc2ccccn12)C(C)(C)C [Example 220, N-tert-butyl-N-[2-(5-methyl-furan-2-yl)-imidazo[1,2-a]pyridin-3-yl]-acetamide] | 61
CSc1ccc(-c2nc3ncccn3c2N(C(C)=O)C(C)(C)C)s1 [Example 221, N-tert-butyl-N-[2-(5-methylsulfanyl-thiophen-2-yl)-imidazo[1,2-a]pyrimidin-3-yl]-acetamide] | 54
CCCCN(C(C)=O)c1c(-c2ccc(Cl)cc2Cl)nc2ncccn12 [Example 223, N-butyl-N-[2-(2,4-dichloro-phenyl)-imidazo[1,2-a]pyrimidin-3-yl]-acetamide] | 62
CCCCN(C(C)=O)c1c(-c2cccc(OC)c2OC)nc2cc(C)ccn12 [Example 226, N-butyl-N-[2-(2,3-dimethoxy-phenyl)-7-methyl-imidazo[1,2-a]pyridin-3-yl]-acetamide] | 62
CC(=O)N(c1c(-c2cccc(Cl)c2Cl)nc2ccccn12)C(C)(C)C [Example 227, N-tert-butyl-N-[2-(2,3-dichloro-phenyl)-imidazo[1,2-a]pyridin-3-yl]-acetamide] | 54
CC(=O)N(c1c(-c2ccc(C(=O)O)o2)nc2c(C)cccn12)C(C)(C)CC(C)(C)C [Example 230, 5-{3-[acetyl-(1,1,3,3-tetramethyl-butyl)-amino]-8-methyl-imidazo[1,2-a]pyridin-2-yl}-furan-2-carboxylic acid] | 52
CSc1ccc(-c2nc3cnccn3c2N(C(C)=O)C(C)(C)C)s1 [Example 233, N-tert-butyl-N-[2-(5-methylsulfanyl-thiophen-2-yl)-imidazo[1,2-a]pyrazin-3-yl]-acetamide] | 53
CC(=O)N(c1c(-c2ccc(C(=O)O)s2)nc2cccc(C)n12)C1CCCCC1 [Example 234, 5-[3-(acetyl-cyclohexyl-amino)-5-methyl-imidazo[1,2-a]pyridin-2-yl]-thiophene-2-carboxylic acid] | 58
CSc1ccc(-c2nc3cnccn3c2N(C(C)=O)C(C)(C)CC(C)(C)C)s1 [Example 235, N-[2-(5-methylsulfanyl-thiophen-2-yl)-imidazo[1,2-a]pyrazin-3-yl]-N-(1,1,3,3-tetramethyl-butyl)-acetamide] | 58
CC(=O)N(c1c(C)cccc1C)c1c(-c2cccc(Cl)c2Cl)nc2cccc(C)n12 [Example 236, N-[2-(2,3-dichloro-phenyl)-5-methyl-imidazo[1,2-a]pyridin-3-yl]-N-(2,6-dimethyl-phenyl)-acetamide] | 58

Next, values leading:

inhibition at 10 µM [%] | Structure (SMILES)
54 | CC(=O)N(c1c(-c2ccc(C(=O)O)o2)nc2cc(C)ccn12)C(C)(C)C [Example 201, 5-[3-(acetyl-tert-butyl-amino)-7-methyl-imidazo[1,2-a]pyridin-2-yl]-furan-2-carboxylic acid]
54 | CC(=O)N(c1c(-c2cccc3ccccc23)nc2cc(C)ccn12)C(C)(C)C [Example 204, N-tert-butyl-N-(7-methyl-2-naphthalen-1-yl-imidazo[1,2-a]pyridin-3-yl)-acetamide]
62 | CC(=O)N(c1c(C)cccc1C)c1c(-c2ccccc2F)nc2cc(C)ccn12 [Example 209, N-(2,6-dimethyl-phenyl)-N-[2-(2-fluoro-phenyl)-7-methyl-imidazo[1,2-a]pyridin-3-yl]-acetamide]
69 | COc1cc(-c2nc3c(C)cc(Br)cn3c2N(C(C)=O)c2c(C)cccc2C)ccc1OC(C)=O [Example 213, acetic acid 4-{3-[acetyl-(2,6-dimethyl-phenyl)-amino]-6-bromo-8-methyl-imidazo[1,2-a]pyridin-2-yl}-2-methoxy-phenyl ester]
53 | CC(=O)N(c1c(-c2cc(C)c(C)o2)nc2cccc(C)n12)C(C)(C)CC(C)(C)C [Example 222, N-[2-(4,5-dimethyl-furan-2-yl)-5-methyl-imidazo[1,2-a]pyridin-3-yl]-N-(1,1,3,3-tetramethyl-butyl)-acetamide]
53 | CC(=O)N(c1c(-c2sccc2Br)nc2ccc(C)cn12)C1CCCCC1 [Example 224, N-[2-(3-bromo-thiophen-2-yl)-6-methyl-imidazo[1,2-a]pyridin-3-yl]-N-cyclohexyl-acetamide]
55 | CC(=O)N(c1c(C)cccc1C)c1c(-c2ccc(C(=O)O)s2)nc2ccc(C)cn12 [Example 225, 5-{3-[acetyl-(2,6-dimethyl-phenyl)-amino]-6-methyl-imidazo[1,2-a]pyridin-2-yl}-thiophene-2-carboxylic acid]
53 | CCCc1cccc2nc(-c3ccco3)c(N(C(C)=O)C(C)(C)CC(C)(C)C)n12 [Example 228, N-(2-furan-2-yl-5-propyl-imidazo[1,2-a]pyridin-3-yl)-N-(1,1,3,3-tetramethylbutyl)-acetamide]
59 | CC(=O)N(c1c(-c2ccc(C(=O)O)s2)nc2ccccn12)C1CCCCC1 [Example 229, 5-[3-(acetyl-cyclohexyl-amino)-imidazo[1,2-a]pyridin-2-yl]-thiophene-2-carboxylic acid]
52 | CCCCN(C(C)=O)c1c(-c2ccccn2)nc2c(C(=O)O)cccn12 [Example 231, 3-(acetyl-butyl-amino)-2-pyridin-2-yl-imidazo[1,2-a]pyridine-8-carboxylic acid]
55 | CCCCN(C(C)=O)c1c(-c2ccccc2OC)nc2ccccn12 [Example 237, N-butyl-N-[2-(2-methoxy-phenyl)-imidazo[1,2-a]pyridin-3-yl]-acetamide]
